Laboratory results reported in US7211584B2, “5-HT7 receptor ligands” (Laboratorios del Dr. Esteve, S.A., priority 2004, dated 2007).
Where a name gives a salt, the structure may show the parent alone.

Target: T1, Human Serotonin Receptor, Subtype 7 (h5HT7) (Homo sapiens, UniProt P34969)
T1 construct: purchased PerkinElmer 6120512; host or cells: CHO cells (membranes)
Assay: Radioligand binding, cloned human serotonin receptor subtype 7 (h5HT7) expressed in CHO cells, [125I]LSD
Details: h5HT7 in CHO cells on Flashplate; [125I]LSD 0.82 nM; room temperature 240 minutes; triplicate; read-out: 5-HT7 IC-50
Protocol: Radioligand binding assays were performed using the Cloned Human Serotonin Receptor, Subtype 7 (h5HT7), expressed in CHO cells, coated on Flashplate (Basic FlashPlate Cat.: SMP200) from PerkinElmer (Cat.: 6120512). The protocol assay was essentially the recommended protocol in the Technical Data Sheet by PerkinEmer Life and Analytical Sciences. The Mass membrane protein/well was typically 12 μg and the Receptor/well was about 9–10 fmoles. The Flashplate were let equilibrate at room temperature for one hour before the addition of the components of the assay mixture. The binding buffer was: 50 mM Tris-HCl, pH 7.4, containing 10 mM MgCl2, 0.5 mM EDTA and 0.5% BSA. The radioligand was [^125I]LSD at a final concentration of 0.82 nM. Nonspecific binding was determined with 50 μM of Clozapine. The assay volume was 25 μl. TopSeal-A were applied onto Flashplate microplates and they were incubated at room temperature for 240 minutes in darkness. The radioactivity were quantified by liquid scintillation spectrophotometry (Wallac 1450 Microbeta Trilux) with a count delay of 4 minutes prior to counting and a counting time of 30 seconds per well. Competition binding data were analyzed by using the LIGAND program (Munson and Rodbard, LIGAND: A versatile, computerized approach for characterization of ligand-binding systems. Anal. Biochem. 107: 220–239, 1980) and assays were performed in triplicate determinations for each point.

T1 sequence (P34969 whole entry): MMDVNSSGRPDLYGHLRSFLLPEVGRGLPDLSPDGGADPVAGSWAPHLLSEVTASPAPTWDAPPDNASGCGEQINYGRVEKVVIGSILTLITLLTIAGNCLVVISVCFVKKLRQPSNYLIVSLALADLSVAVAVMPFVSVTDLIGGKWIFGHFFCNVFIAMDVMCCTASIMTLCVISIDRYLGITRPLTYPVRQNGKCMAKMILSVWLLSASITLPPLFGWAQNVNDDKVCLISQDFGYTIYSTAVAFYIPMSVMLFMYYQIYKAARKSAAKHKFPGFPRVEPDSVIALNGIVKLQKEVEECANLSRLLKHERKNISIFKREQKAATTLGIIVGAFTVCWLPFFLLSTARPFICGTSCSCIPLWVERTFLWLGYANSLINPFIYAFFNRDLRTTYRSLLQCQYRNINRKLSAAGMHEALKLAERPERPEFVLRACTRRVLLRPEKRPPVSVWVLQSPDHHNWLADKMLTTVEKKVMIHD

Q: With `COc1cc2c(cc1OC)CN(CCCNS(=O)(=O)c1cc(Cl)ccc1Cl)CC2` [Compound 43, 2,5-Dichloro-N-[3-(6,7-dimethoxy-3,4-dihydro-1H-isoquinolin-2-yl)-propyl]-benzenesulfonamidehydrochloride] as the compound, how does the IC50 read?
A: 89.5 nM

Q: With `O=S(=O)(NCCCN1CCc2ccccc2C1)c1ccccc1` [Compound 35, N-[3-(3,4-Dihydro-1H-isoquinolin-2-yl)-propyl]-benzenesulfonamidehydrochloride] as the compound, how does the IC50 read?
A: 136 nM

Q: For `COc1cc2c(cc1OC)CN(CCCNS(=O)(=O)c1cc(Cl)c(F)cc1F)CC2` [Compound 48, 5-Chloro-N-[3-(6,7-dimethoxy-3,4-dihydro-1H-isoquinolin-2-yl)-propyl]-2,4-difluoro-benzenesulfonamide], which IC50 is on record?
A: 64.8 nM

Q: For `O=S(=O)(NCCCN1CCc2ccccc2C1)c1cccc2ccccc12` [Compound 33, Naphthalene-1-sulfonic acid[3-(3,4-dihydro-1H-isoquinolin-2-yl)-propyl]-amide hydrochloride], which IC50 is on record?
A: 384 nM

Q: For `COc1cc(C)c(S(=O)(=O)NCCCN2CCc3ccccc3C2)c(C)c1C` [Compound 40, N-[3-(3,4-Dihydro-1H-isoquinolin-2-yl)-propyl]-4-methoxy-2,3,6-trimethyl-benzenesulfonamidehydrochloride], which IC50 is on record?
A: 112 nM
